PMC9781652, “Dinuclear Iron Complexes of Iminopyridine-Based Ligands as Selective Cytotoxins for Tumor Cells and Inhibitors of Cancer Cell Migration” (Pharmaceutics, 2022)

Experiments:
[1] = test system: NCI-H460 human lung carcinoma cells; assay: Cell proliferation assay (MTT), NCI-H460; format: cell-based; details: for IC50: 72 h exposure, MTT, mean ± SE; for SI NCI-H460 (selectivity index): ratio IC50 CCD-18Co / IC50 NCI-H460
Experimental: (§1) Cells were seeded into 96-well plates at densities of 1500 cells per well for OVCAR-8, 1900 for NCI-H460, and 4000 for CCD-18Co. After 24 h of incubation, they were treated for 72 h with different concentrations of the compounds (concentration range: 0.01 to 6 μM for OVCAR-8; 0.05 to 2 μM for NCI-H460; and 0.07 to 70 μM for CCD-18Co cells). When indicated, cells were also incubated with 30 µM of the ROS scavenger Manganese (III) 5,10,15,20-tetrakis (4-benzoic acid) porphyrin (MnTBAP) (Calbiochem, San Diego, CA, USA). Cell viability was measured using the MTT assay as previously described. The IC50 value corresponds to the concentration of the assayed compound that is required to inhibit the cell proliferation by 50%, and was calculated by linear interpolation from the obtained growth curves. All data are reported as the mean ± standard error (SE) calculated from at least three independent experiments with three replicates in each.

[2] = test system: OVCAR-8 human ovarian carcinoma cells; assay: Cell proliferation assay (MTT), OVCAR-8; format: cell-based; details: for IC50: 72 h exposure, MTT, mean ± SE; for SI OVCAR-8 (selectivity index): ratio IC50 CCD-18Co / IC50 OVCAR-8
Experimental: as §1

[3] = test system: CCD-18Co human colon fibroblasts; assay: Cell proliferation assay (MTT), non-tumor CCD-18Co; format: cell-based; details: non-tumor cells, 72 h exposure, mean ± SE
Experimental: as §1

[4] = test system: MDA-MB-231 human breast carcinoma cells; assay: Cytotoxicity on MDA-MB-231; format: cell-based
[5] = test system: OVCAR-8 cells; assay: Apoptosis analysis, Annexin V-Alexa Fluor 488/PI flow cytometry, OVCAR-8; format: cell-based, human; details: OVCAR-8, 1.65 µM, 72 h
Experimental: (§2) Quantitative analysis of apoptotic cell death caused by compound 10 treatment was carried out by flow cytometry using the Alexa Fluor 488 annexin V/PI Vybrant Apoptosis Assay Kit (Molecular Probes, Eugene, OR, USA) as previously described. Briefly, NCI-H460 cells (7 × 10^4 per well) and OVCAR-8 cells (8 × 10^4 per well) were seeded into 6-well plates and then treated with compound 10 (0.64 μM for NCI-H460 and 1.65 μM for OVCAR-8) for 72 h in serum starved medium. After treatment, we collected attached and floating cells, washed them in cold PBS and stained them for 15 min in the dark with Annexin V-Alexa Fluor 488 and propidium iodide (PI) at room temperature. Cells were analyzed using NovoCyte Flow Cytometer (ACEA Biosciences, San Diego, CA, USA) and NovoExpress software (ACEA Biosciences, San Diego, CA, USA). At least 10,000 cells within the gated region were analyzed.

[6] = test system: MDA-MB-231 cells; assay: Transwell cell migration assay; format: cell-based, human; details: 0.1 µM, 24, 48 or 72 h
Experimental: MDA-MB-231 cells were seeded into the upper chamber of a 24-well transwell insert (8 µm pore size; Sarstedt, Nümbrecht, Germany) at a density of 12,000 cells/0.5 mL RPMI 1640 medium with 0.5% FBS and treated with 0.1 µM compound 10 (corresponding to an IC20). The lower chamber was filled with 0.5 mL RPMI 1640 medium with 10% FBS as a chemoattractant. The cells on the upper side of the inserts were removed with a cotton swab after 24, 48, or 72 h of incubation at 37 °C. Cells that migrated to the lower side of the inserts were fixed for 30 min with 4% paraformaldehyde and stained for 20 min at room temperature with 0.2% crystal violet solution. Ten randomly selected fields at 200× magnification were counted using an Olympus CKX41 inverted microscope (Tokyo, Japan).

[7] = test system: OVCAR-8 cells; assay: Flow cytometric analysis of ROS generation (carboxy-H2DCFDA), OVCAR-8; format: cell-based, human; details: OVCAR-8, 2, 4.5 or 9 µM, 48 or 72 h
Experimental: (§3) ROS generation after treatment with the compounds was analyzed using a carboxy-20, 70-dichlorodihydrofluorescein diacetate probe (carboxy-H2DCFDA) (Invitrogen, Waltham, MA). ROS species oxidize this molecule to green fluorescent dichlorofluorescein (DCF), allowing their detection inside the cells using a flow cytometer. A total of 24 h prior to treatments cells were seeded at 70,000 cells/well in 6-well plates in phenol red-free RPMI. Then, they were treated for 48 or 72 h at 37 °C with different concentrations of compound 10 (0.7, 1.5, or 3 μM for NCI-H460 cells and 2, 4.5, or 9 μM for OVCAR-8 cells) for 48 or 72 h at 37 °C. After treatments, cells were washed with PBS and incubated for 30 min at 37 °C in the dark with either 1 μM (NCI-H460 cells) or 0.5 μM (OVCAR-8 cells) carboxy-H2DCFDA diluted in PBS. Cells were then collected with phenol red-free trypsin and analyzed using a NovoCyte Flow cytometer. NovoExpress software (ACEA Biosciences, San Diego, CA, USA) was used to stablish the geometric mean fluorescence intensity of 10,000 cells.

[8] = test system: NCI-H460 cells; assay: Cell cycle phase analysis (PI flow cytometry), NCI-H460; format: cell-based, human; details: NCI-H460, 0.3 µM, 72 h
Experimental: (§4) NCI-H460 and OVCAR-8 cells were treated for 72 h with compound 10 (0.3 μM for NCI-H460 and 0.8 μM for OVCAR-8). Then, they were collected and fixed at −20 °C with 70% ethanol for at least 1 h. Fixed cells washed with cold PBS were resuspended in PBS at a cell density of 1–2 × 10^6 cells/mL, treated at 37 °C for 30 min with ribonuclease A (100 μg/mL) and PI (40 μg/mL) (Molecular Probes, Eugene, OR, USA), and analyzed by flow cytometric. At least 10,000 cells within the gated region were analyzed on a NovoCyte Flow Cytometer (ACEA Biosciences, San Diego, CA, USA). Cell cycle distribution was analyzed using NovoExpress software (ACEA Biosciences, San Diego, CA, USA).

[9] = test system: NCI-H460 cells; assay: Flow cytometric analysis of ROS generation (carboxy-H2DCFDA), NCI-H460; format: cell-based, human; details: NCI-H460, 0.7, 1.5 or 3 µM, 48 or 72 h
Experimental: as §3

[10] = test system: NCI-H460 cells; assay: Apoptosis analysis, Annexin V-Alexa Fluor 488/PI flow cytometry, NCI-H460; format: cell-based, human; details: NCI-H460, 0.64 µM, 72 h
Experimental: as §2

[11] = test system: supercoiled pUC18 DNA; assay: DNA interaction analysis by agarose gel electrophoresis; format: biochemical; details: highest concentrations, 24 h, 37 °C, with H2O2
Experimental: The interaction of DNA with the compounds was monitored in an agarose gel electrophoresis as previously described. […] Two other samples were included in the assays: a sample of pUC18 DNA alone as negative control and a sample of pUC18 DNA with 5 µg/mL cisplatin for comparison purposes. […] Gels were stained with ethidium bromide (1 µg/mL in TBE) for 15 min and DNA bands were visualized under UV light.

[12] = test system: OVCAR-8 cells; assay: Cell cycle phase analysis (PI flow cytometry), OVCAR-8; format: cell-based, human; details: OVCAR-8, 0.8 µM, 72 h
Experimental: as §4

Q: Which results are given for `CC#N.CC#N.CC#N.CC#N.Cc1cc(N=Cc2ccc(Br)cn2)c2c(c1)C1CC(O2)Oc2c(N=Cc3ccc(Br)cn3)cc(C)cc21.Cc1cc(N=Cc2ccc(Br)cn2)c2c(c1)C1CC(O2)Oc2c(N=Cc3ccc(Br)cn3)cc(C)cc21.F[B-](F)(F)F.F[B-](F)(F)F.F[B-](F)(F)F.F[B-](F)(F)F.[Fe+2].[Fe+2]` [Compound 9, [Fe23_2(CH3CN)4](BF4)4]?
A: IC50 [1]: 0.6 ± 0.04 µM; SI NCI-H460 (selectivity index) [1]: 12.0; IC50 [2]: 1.78 ± 0.16 µM; SI OVCAR-8 (selectivity index) [2]: 4.1; IC50 [3]: 7.2 ± 3.4 µM

Q: `CC#N.CC#N.CC#N.CC#N.Cc1cc(N=Cc2cccc(C)n2)c2c(c1)C1CC(O2)Oc2c(N=Cc3cccc(C)n3)cc(C)cc21.Cc1cc(N=Cc2cccc(C)n2)c2c(c1)C1CC(O2)Oc2c(N=Cc3cccc(C)n3)cc(C)cc21.F[B-](F)(F)F.F[B-](F)(F)F.F[B-](F)(F)F.F[B-](F)(F)F.[Fe+2].[Fe+2]` [Compound 10, [Fe2(4)2(CH3CN)4](BF4)4] was tested. Which IC50 ([4]; MDA-MB-231 cells) did it give?
A: 0.25 µM

Q: What about the “fold lower IC50 than that described for cisplatin, MDA-MB-231” value ([4]; cisplatin value from literature) of the same compound?
A: about 250 fold

Q: And the IC20 ([4]; concentration used in migration assay, corresponding to an IC20)?
A: 0.1 µM

Q: What about the “percentage of cells that enter in apoptosis (early + late)” value [5] of the same compound?
A: ~66%

Q: What about the “Early apoptotic cells (%)” value ([5]; serum starved medium) of the same compound?
A: 36.12 ± 2.32%

Q: And the “Late apoptotic cells (%)” value ([5]; serum starved medium)?
A: 30.82 ± 2.60%

Q: What about the “Necrotic cells (%)” value ([5]; serum starved medium) of the same compound?
A: 1.27 ± 0.08%

Q: What about the “Viable cells (%)” value ([5]; serum starved medium) of the same compound?
A: 31.79 ± 3.27%

Q: What about the IC50 [1] of the same compound?
A: 0.64 ± 0.05 µM

Q: And the “SI NCI-H460 (selectivity index)” value [1]?
A: 33.7

Q: What about the “Migration of MDA-MB-231 cells” value [6] of the same compound?
A: significantly reduces the migration

Q: And the “ROS levels (fold-increase vs control)” value [7]?
A: ROS levels rise with time and concentration

Q: And the IC50 [2]?
A: 1.65 ± 0.26 µM

Q: What about the “Cellular viability with vs without ROS scavenger MnTBAP” value ([2]; OVCAR-8, MTT, 30 µM MnTBAP) of the same compound?
A: MnTBAP reduces the antiproliferative effect

Q: What about the “SI OVCAR-8 (selectivity index)” value [2] of the same compound?
A: 13.1

Q: What about the “% G0/G1” value [8] of the same compound?
A: 57.62%

Q: And the “% G2/M” value [8]?
A: 15.58%

Q: What about the “% S” value [8] of the same compound?
A: 21.71%

Q: What about the “% Sub-G1” value [8] of the same compound?
A: 5.10%

Q: What about the “Effect on cell cycle phase distribution vs untreated cells” value [8] of the same compound?
A: do not show significant changes in the cell cycle phase distribution

Q: What about the “ROS levels (fold-increase vs control)” value [9] of the same compound?
A: ROS levels rise with time and concentration

Q: What about the “percentage of cells that enter in apoptosis (early + late)” value [10] of the same compound?
A: about 82%

Q: And the “Early apoptotic cells (%)” value ([10]; serum starved medium)?
A: 13.72 ± 4.34%

Q: What about the “Late apoptotic cells (%)” value ([10]; serum starved medium) of the same compound?
A: 68.61 ± 3.04%

Q: And the “Necrotic cells (%)” value ([10]; serum starved medium)?
A: 1.29 ± 0.27%

Q: What about the “Viable cells (%)” value ([10]; serum starved medium) of the same compound?
A: 16.37 ± 2.32%

Q: And the “Effect on pUC18 DNA in the presence of H2O2 at the highest concentrations” value [11]?
A: total DNA degradation

Q: And the IC50 [3]?
A: 21.6 ± 3.18 µM

Q: What about the “% G0/G1” value [12] of the same compound?
A: 41.91%

Q: And the “% G2/M” value [12]?
A: 28.36%

Q: And the “% S” value [12]?
A: 23.09%

Q: And the “% Sub-G1” value [12]?
A: 6.61%

Q: What about the “Effect on cell cycle phase distribution vs untreated cells” value [12] of the same compound?
A: shift in the cell population from the G0/G1 phase to the S and G2/M phases

Q: Which IC50 [1] does the source give for `CC#N.CC#N.CC#N.CC#N.COc1cccc(C=Nc2cc(C)cc3c2OC2CC3c3cc(C)cc(N=Cc4cccc(OC)n4)c3O2)n1.COc1cccc(C=Nc2cc(C)cc3c2OC2CC3c3cc(C)cc(N=Cc4cccc(OC)n4)c3O2)n1.F[B-](F)(F)F.F[B-](F)(F)F.F[B-](F)(F)F.F[B-](F)(F)F.[Fe+2].[Fe+2]` [Compound 11, [Fe25_2(CH3CN)4](BF4)4] here?
A: 0.5 ± 0.1 µM

Q: What about the “SI NCI-H460 (selectivity index)” value [1] of the same compound?
A: 24.1

Q: What about the IC50 [2] of the same compound?
A: 1.4 ± 0.3 µM

Q: What about the “SI OVCAR-8 (selectivity index)” value [2] of the same compound?
A: 8.6

Q: What about the IC50 [3] of the same compound?
A: 12 ± 1.44 µM

Q: How did the IC50 [1] turn out when `CC#N.CC#N.CC#N.CC#N.Cc1cc(N=Cc2ccc3ccccc3n2)c2c(c1)C1CC(O2)Oc2c(N=Cc3ccc4ccccc4n3)cc(C)cc21.Cc1cc(N=Cc2ccc3ccccc3n2)c2c(c1)C1CC(O2)Oc2c(N=Cc3ccc4ccccc4n3)cc(C)cc21.F[B-](F)(F)F.F[B-](F)(F)F.F[B-](F)(F)F.F[B-](F)(F)F.[Fe+2].[Fe+2]` [Compound 12, [Fe26_2(CH3CN)4](BF4)4] was run?
A: 0.49 ± 0.08 µM

Q: And the “SI NCI-H460 (selectivity index)” value [1]?
A: 8.1

Q: What about the IC50 [2] of the same compound?
A: 1.24 ± 0.27 µM

Q: What about the “SI OVCAR-8 (selectivity index)” value [2] of the same compound?
A: 3.2

Q: And the “Effect on pUC18 DNA in the presence of H2O2 at the highest concentrations” value [11]?
A: total DNA degradation

Q: What about the IC50 [3] of the same compound?
A: 4.05 ± 0.62 µM
